Laboratory results from patent US20240299393A1, “SMALL MOLECULE DISRUPTORS OF PROTEIN INTERACTIONS IN HISTONE DEACETYLASE COMPLEXES” (Dana-Farber Cancer Institute, Inc., priority 2021, published 2024).
Entries after “also recorded” stand apart in the source; their conditions may differ.

What was measured:
[1] = test system: full-length G. princeps luciferase; experiment: GPCA control with full-length luciferase; format: cell-based, Gaussia princeps; details: 16 h
Description: The ability of compounds to inhibit binary PPIs in the Sin3/Rpd3L HDAC complex was tested by GPCA in a high-throughput screening format. Interactions identified in the mapping at 1.0% […]2 detection cutoff were reconstituted by expressing protein pairs in the exact same orientations. […] HEK293T cells were transfected with 100 ng of each GPCA plasmid expressing either protein X, or protein Y, as described above. […] The luminescence signal for each PPI was measured by averaging the different DMSO replicates, and calculating the standard deviation of DMSO values for each interaction. For each PPI, an individual data point for every compound tested was obtained and this value was compared to the averaged DMSO value. For each interaction, a particular compound was scored as a PPI inhibitor when it decreased its luminescence signal by at least three standard deviations compared to the corresponding averaged DMSO value. […] 50 μL/well of the Renilla luciferase substrate (Renilla Luciferase Assay system, cat #E2820, Promega) were then added and luminescence was read approximately two minutes after injection using a Centro XS^3 LB960 plate reader (3 s integration). For each plate, signal was measured twice and the first measurement was used for calculations. Results were normalized by averaging raw luminescence values from DMSO wells and dividing each data point by this averaged value.

[2] = Mouse liver microsome stability test; format: in vitro ADME; details: 1 mg/mL hepatic microsomes
Description: Mouse liver microsome (MLM) half-life measurements were performed by Scripps Florida Pharmacology Core, according to their protocols [Lamberto et al 2017]. 1 mg/mL hepatic microsomes was used to test compounds.
To assess whether E6R may be suitable for testing the effect of HDAC inhibition via new mechanisms in mouse, the half-life […] and intrinsic clearance (Clint) of this compound was first measured using a standard microsomal metabolic assay where sunitinib was used as a control [Lamberto et al 2017]. In this setting, compound degradation is induced by concentrated microsomes isolated from mouse liver. In particular, these hepatic extracts contain the cytochrome P450 system that is primarily responsible for first pass metabolism in vivo.

[3] = molecular target: T1, SIN3A occupancy at the Homer1 promoter (Mus musculus, UniProt Q60520); experiment: ChIP-qPCR of SIN3A at Homer1 in mouse frontal cortex; format: in vivo
T1 construct: from tissue; host or cells: mouse frontal cortex (C57BL/6N, treated in vivo)
T1 sequence (Q60520 whole entry): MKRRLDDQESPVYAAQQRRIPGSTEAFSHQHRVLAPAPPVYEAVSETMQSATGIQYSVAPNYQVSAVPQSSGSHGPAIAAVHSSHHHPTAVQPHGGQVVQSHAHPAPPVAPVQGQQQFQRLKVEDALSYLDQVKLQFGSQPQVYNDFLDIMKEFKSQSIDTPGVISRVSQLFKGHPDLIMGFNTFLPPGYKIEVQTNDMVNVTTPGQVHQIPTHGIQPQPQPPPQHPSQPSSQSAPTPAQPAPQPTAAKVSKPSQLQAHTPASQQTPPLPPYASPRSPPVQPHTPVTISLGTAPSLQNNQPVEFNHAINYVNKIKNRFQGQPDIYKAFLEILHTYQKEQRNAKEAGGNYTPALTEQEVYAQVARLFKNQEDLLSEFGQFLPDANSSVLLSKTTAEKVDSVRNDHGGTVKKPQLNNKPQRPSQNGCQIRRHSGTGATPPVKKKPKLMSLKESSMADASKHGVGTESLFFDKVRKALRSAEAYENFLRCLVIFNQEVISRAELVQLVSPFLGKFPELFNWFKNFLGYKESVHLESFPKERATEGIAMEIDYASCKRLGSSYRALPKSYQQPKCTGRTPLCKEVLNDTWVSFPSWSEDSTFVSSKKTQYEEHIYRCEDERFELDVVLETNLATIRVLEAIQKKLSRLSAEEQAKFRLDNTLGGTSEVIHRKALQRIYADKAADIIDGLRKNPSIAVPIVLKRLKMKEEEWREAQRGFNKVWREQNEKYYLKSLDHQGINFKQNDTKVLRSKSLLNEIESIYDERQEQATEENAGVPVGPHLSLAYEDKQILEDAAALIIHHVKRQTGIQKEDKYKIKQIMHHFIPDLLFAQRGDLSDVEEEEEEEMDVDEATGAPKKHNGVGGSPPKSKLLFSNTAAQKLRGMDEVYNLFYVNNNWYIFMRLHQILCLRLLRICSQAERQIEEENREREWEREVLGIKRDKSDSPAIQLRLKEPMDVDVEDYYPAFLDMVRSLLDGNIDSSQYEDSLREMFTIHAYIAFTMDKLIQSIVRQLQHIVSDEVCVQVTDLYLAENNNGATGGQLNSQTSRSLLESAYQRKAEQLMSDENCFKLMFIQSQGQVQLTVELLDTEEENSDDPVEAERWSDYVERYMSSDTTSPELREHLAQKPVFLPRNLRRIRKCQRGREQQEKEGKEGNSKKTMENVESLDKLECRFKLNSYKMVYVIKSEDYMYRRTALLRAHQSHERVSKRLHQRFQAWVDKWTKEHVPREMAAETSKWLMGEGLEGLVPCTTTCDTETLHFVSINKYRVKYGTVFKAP
Description: ChIP assays were performed using the MAGnify ChIP system (ThermoFisher, MA) according to the manufacturer's protocol with a few modifications. A small section (50 mg) of the frontal cortex (FC) was used. Chromatin was sheared with the Covaris® S2 system (Covaris, Woburn, MA) using the following program: duty cycle 5%, intensity 2, 200 cycles per burst, 60 s cycle per time, 20 cycles, temperature 4° C. A volume of 10 μL chromatin was used per sample. A total of 0.5 μg of the anti-H3 antibody (PA5 16183, Invitrogen, Carlsbad, CA), 1 μg of the anti-SIN3A antibody (ab3479, Abcam, Cambridge, MA) or anti-IgG (ab37355, Abcam) was used per sample. Quantitative real-time PCR analysis was performed following magnetic bead-based DNA purification. The DNA samples were amplified in quadruplicate reactions as previously described [Ibi et al 2017] using the QuantStudio 6 Flex Real-Time PCR System (Applied Biosystems) using the PowerUP SYBR Green Master Mix (Applied Biosystems). All primers for ChIP-qPCR are described in FIG. 34.

[4] = molecular target: T2, PAH2 domain of mouse M. musculus SIN3B (Mus musculus, UniProt Q62141, C241A); experiment: Ligand-detected NMR, mouse SIN3B PAH2; format: binding
T2 construct: M. musculus SIN3B PAH2 C241A (residues 148-252) expressing plasmid; GST (cleaved yes); made in house; host or cells: E. coli BL21 (DE3), minimal medium with 15N-ammonium chloride and 13C-glucose
T2 sequence (Q62141 148-252 C241A): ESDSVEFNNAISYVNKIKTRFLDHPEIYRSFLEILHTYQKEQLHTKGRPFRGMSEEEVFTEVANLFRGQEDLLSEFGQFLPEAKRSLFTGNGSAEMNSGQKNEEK
Description: Expression of mouse ^13C/^15N SIN3B PAH2: the same M. musculus SIN3B PAH2 C241A (residues 148-252) expressing plasmid as reported by [Kumar et al 2011] was used here. The construct was overexpressed in E. coli BL21 (DE3) in 1 L of minimum medium supplemented with 1 g 15N-ammonium chloride (Cambridge Isotope Laboratories) and 2 g 13C-glucose (Cambridge Isotope Laboratories). Cells were grown at 37° C. to an OD of 0.8, cooled to 17° C., induced with 500 μM isopropyl-1-thio-D-galactopyranoside, incubated overnight at 17° C., collected by centrifugation, and stored at −80° C. 13C/15N-double labeled protein was purified as for other GST-fused constructs. The GST tag was cleaved as described above.
Ligand-detected NMR experiments: all results were acquired using a 3 mm tube at 25° C. on a Bruker 600 MHz Avance II system equipped with a CPPTCI cryoprobe (Bruker BioSpin Corp.). In all experiments, the concentration of E6R was fixed at 300 μM (from a stock of 25 mM in deuterated DMSO) and the concentration of the protein at 10 μM. The volume of deuterated DMSO was kept constant (1.5%) in all tested samples. […] Proton spectra used to measure DLB and chemical shift perturbations in the absence and presence of the proteins were recorded with 16 scans using a recycle delay of 3 s. […]

[5] = test system: HDAC class I and II enzymes (live yeast cells, HeLa nuclear extract, semi-purified human HDAC1); experiment: HDAC-Glo I/II luminescence HDAC enzymatic assay; format: biochemical, S. cerevisiae; human; details: three HDAC sources
Description: The HDAC-Glo I/II screening system (Promega, cat #G6430) was adapted to measure the effect of compounds on the enzymatic activity of human and yeast HDAC sources. […] FLAG-HDAC1 was eluted from anti-FLAG beads before running the assay, using a FLAG peptide. Nuclear extracts from human HeLa cells were provided in the assay kit. HDAC enzymatic activity was measured following the manufacturer's protocol. Briefly, linear ranges of the assay were determined by measuring luminescence signals, in a serial dilution manner, for semi-purified human HDAC1, or live yeast cells, diluted in the HDAC-Glo I/II buffer. For HeLa nuclear extracts, the manufacturer provided this information in the assay kit. For the different HDAC sources, dilution factors corresponding to signals in the linear ranges were used. To test the effect of compounds (three or four replicates) on HDAC enzymatic activity, equal volumes of HDAC sources (5 μL), and inhibitors (5 μL) were added to the different wells of a white, flat bottom 384-well plate. The plate was then briefly centrifuged with a tabletop centrifuge, and gently shaken for 1 min at 700 rpm. The plate was tightly sealed to prevent evaporation, and incubated at room temperature for 1 h. […] Luminescence signals were measured using a TriStar luminometer from Berthold Technologies, with 1 s integration time per sample. […]

With `CC(NC(=O)c1c(O)n2ccccc2nc1=O)c1ccccc1` (racemic) [E6] the “effect on full-length G. princeps luciferase” value [1] was “does not perturb”.
In the case of `C[C@@H](NC(=O)c1c(O)n2ccccc2nc1=O)c1ccccc1` [E6R, 4-hydroxy-2-oxo-N—((R)-1-phenylethyl)-3,4-dihydro-2H-pyrido[, 2-a]pyrimidine-3-carboxamide], the “half-life in mouse liver microsomes” value [2] is reported as 17 min, the “recruitment of SIN3A at Homer1 promoter” value ([3]; HDAC2 cKO mice) is reported as “not observed” and the “recruitment of SIN3A at Homer1 promoter” value ([3]; WT mice, chronic 50 mg/kg, vs vehicle) is reported as “significantly reduced recruitment; also recorded: significantly reduces”. The “binding to mouse SIN3B PAH2 by NMR” value [4] was “virtually identical to those of yeast Sin3 PAH2”.
With `CC(/C=C/C(=O)NO)=C\[C@@H](C)C(=O)c1ccc(N(C)C)cc1` [TSA, trichostatin A] the “inhibition of HDAC enzymatic activity” value [5] was “systematically reduced HDAC activity”.
